{"source": "patent US20100021379A1", "about": "“Chemical Antibodies for Immunotherapy and Imaging” (The Regents of the University of California, priority 2006, published 2010)", "system": "K562 cells transfected with the alpha4 integrin subunit", "conditions": "ligand alone", "experimental": "K562 cells express the betal integrin subunit, but not the alpha4 integrin subunit. Staining was quantified by FLOW cytometry, which was performed on a Coulter® XL-MCL™ Flow Cytometer (Beckman Coulter, Inc.; Fullerton, Calif.). Cells were harvested and adjusted to a concentration of 1×10^6 cells/ml in TBS plus 1 mM CaCl2 and MnCl2. Fc-ligand antibody conjugates, Fc fragments, or ligands were then incubated at various concentrations with cells for 1 hour at room temperature. Cells were centrifuged at 1000 RPM for 5 minutes, liquid was aspirated, and cells were resuspended and spun down again. Cells were then incubated with a detecting agent, e.g., 1:1000 streptavidin-PE or 1:500 anti-human Fc-FITC (Sigma-Aldrich Co.) for 1 h at room temperature. Cells were washed two times as described above and then resuspended in PBS at a concentration of 1×10^6 cells/ml. Cellular fluorescence was visualized using a fluorescent microscope.", "data": [{"smiles": "Cc1ccccc1NC(=O)Nc1ccc(CC(=O)N[C@@H](CCCCNC(=O)/C=C/c2cccnc2)C(=O)N[C@@H](CCCC(=O)O)C(=O)NC2(C(=O)NCCOCCOCCNC(=O)CCC(=O)N[C@@H](Cc3ccc(O)c(O)c3)C(=O)NCCOCCOCCNC(=O)CCC(=O)NCCOCCOCCNC(=O)CCC(=O)N[C@@H](CCCCNC(=O)CCCC[C@@H]3SC[C@@H]4NC(=O)N[C@@H]43)C(N)=O)CCCCC2)cc1", "note": "[Ligand 2A-DOPA-Biotin]", "values": [{"measurement": "IC50", "result": 2, "unit": "pM"}]}]}
